{
  "source": "paper PMC6158767",
  "about": "“Vistusertib (dual m-TORC1/2 inhibitor) in combination with paclitaxel in patients with high-grade serous ovarian and squamous non-small-cell lung cancer” (Annals of Oncology, 2018)",
  "key": {"[1]": {"assay": "Pharmacokinetic sampling (plasma, LC-MS/MS) in the dose-escalation arm", "conditions": "paclitaxel with vistusertib", "description": "(§3) This method is applicable to the analysis of AZD2014 in human plasma treated with K2EDTA anticoagulant. AZD2014 and the internal standard (ISTD), 13C22H2AZ12729279 are extracted from human plasma by solid-phase extraction (SPE). After evaporation under nitrogen, the residue is reconstituted and analysed using liquid chromatography (LC) with tandem mass spectrometric detection (MS/MS). The standard curve range is from 20.0 to 20,000 ng/mL for AZD2014, using a plasma sample volume of 0.0250 mL."}, "[2]": {"system": "Ser^473 p-AKT in platelet-rich plasma", "assay": "Phosphorylation of AKT (Ser473) in platelet-rich plasma, MSD electrochemiluminescent immunoassay", "format": "in vivo, human", "experimental": "Figure 1. Pharmacodynamic profile of vistusertib at 50 mg bd 3/7. Phosphorylation of AKT (Ser473) in platelet-rich plasma was quantified using MSD electrochemiluminescent immunoassays and normalised to corresponding total AKT values. Baseline values were established prior to the start of treatment. On C1D1, only paclitaxel (80 mg/m^2) was administered and a non-significant rise in p-ATK at 4 h following treatment was noted. […] On C1D8, the combination of paclitaxel and vistusertib was administered, which caused a significant reduction of p-AKT compared with baseline. Points represent individual patients, orange line represents mean of up to N = 6 patients. Four samples were excluded because of haemolysis, which interfered with the assay (*P<0.05; paired t-test).\npAkt was assessed in platelet rich plasma (PRP) using a sandwich immunoassay as per manufacturer’s instructions (K11100D, Meso Scale Discovery, Maryland, USA) which consisted of a multiplex assay with plates pre-coated with phospho(Ser473) Akt and total Akt capture antibodies. These plates were blocked for 1 hour, incubated with sample for 1 hour, and finally incubated with an anti-total Akt detection antibody conjugated to MSD-SULFO-TAG for 1 hour before being detected on a Meso Scale Discovery Sector Imager 6000 using electrochemiluminescence in order to determine the percentage of Akt phosphorylated. During validation the inter-assay precision ranged from 6.75 to 7.17%."}, "[3]": {"system": "high-grade serous ovarian cancer (HGSOC)", "assay": "Ovarian cancer expansion: RECIST v1.1 / GCIG CA125 response and progression-free survival", "format": "in vivo, human", "experimental": "(§1) RECIST v1.1 was used to assess tumour response supported by GCIG CA125 response in patients with HGSOC. Response was assessed at the end of every 7-week cycle.\n(§2) Progression-free survival was estimated by the Kaplan–Meier method, beginning on the day of the first dose (C1D1) and continuing until disease progression. Patients who came off study for reasons other than disease progression (clinical or RECIST) were censored. This study is registered with ClinicalTrials.gov, identifier: NCT02193633.\nTwenty-seven patients with relapsed/refractory HGSOC were treated at the RP2D. Two patients were replaced as per protocol and were not considered for assessment of response. The median number of previous treatments was three: the majority (26/27; 96%) of patients having received paclitaxel and 3/27 patients (11%) having previously received weekly paclitaxel (supplementary Table S2, available at Annals of Oncology online). The RECIST and CA125 response rates were 13/25 (52%) and 16/25 (64%), respectively (Figure 2A). The mPFS was 5·8 months (95% CI: 3.3–18.5)."}, "[4]": {"system": "squamous non-small-cell lung cancer (sqNSCLC)", "assay": "Squamous lung cancer expansion: RECIST v1.1 response and progression-free survival", "format": "in vivo, human", "experimental": "as §1, §2"}, "patients with sqNSCLC": {"system": "patients with sqNSCLC", "assay": "Toxicity (NCI-CTCAE V4.0) in the squamous non-small cell lung cancer expansion cohort", "experimental": "Patients administered with 80 mg/m^2 paclitaxel with 50 mg vistusertib bd 3/7 days for 6/7 weeks, dosing starting concurrently on day 1 of each week\nPatients administered with 80 mg/m^2 paclitaxel with 25 mg vistusertib bd 3/7 days for 6/7 weeks, dosing starting concurrently on day 1 of each week treated at paclitaxel 80 mg/m^2/week and vistusertib 25 mg bd 3/7."}, "[5]": {"system": "patients with advanced solid tumours", "assay": "Toxicity (NCI-CTCAE V4.0), DLT and MTD in the dose-escalation cohort, vistusertib with weekly paclitaxel 80 mg/m^2", "experimental": "The dose of paclitaxel administered was 80 mg/m^2 once weekly for 6/7 weeks in a 7-week cycle. In the first week of the dose-escalation cohorts, patients received only paclitaxel on C1D1, then vistusertib on C1D3 to allow for PK and PD samplings. Patients then received weekly paclitaxel (on days 8, 15, 22, 29, and 36) with vistusertib, also starting on days 8, 15, 22, 29, and 36, given orally twice daily either for three consecutive days per week (schedule A: 3/7 days, 6/7 weeks) or two consecutive days per week (schedule B: 2/7 days, 6/7 weeks). In the dose expansion, schedule A was taken forward with patients dosing with vistusertib weekly on days 1–3 for 6 weeks of a 7-week cycle."}, "ovarian cancer models": {"system": "ovarian cancer models", "design": "method as in PMID 29371953", "conditions": "in vitro and in vivo; cited from earlier work"}, "clinical": {"assay": "clinical", "conditions": "human, in vivo, geometric mean; for AUC(0-t): AUClast of vistusertib; for Cmax: Cmax of vistusertib; for half-life: HL Lambda_z (half-life) of vistusertib", "description": "as §3"}, "[6]": {"conditions": "in vivo", "description": "as §3"}, "patients": {"system": "patients", "assay": "Toxicity (NCI-CTCAE V4.0), whole study: hyperglycaemia incidence", "conditions": "vistusertib + weekly paclitaxel"}, "sqNSCLC": {"system": "sqNSCLC", "assay": "RECIST response in the dose-escalation cohort", "format": "in vivo, human", "conditions": "vistusertib + weekly paclitaxel", "experimental": "as §1"}, "[7]": {"design": "method as in PMID 23375793, PMID 25805799", "conditions": "cited from earlier work"}, "[8]": {"conditions": "HGSOC expansion, 50 mg vistusertib bd 3/7 days + paclitaxel 80 mg/m^2"}, "[9]": {"conditions": "HGSOC expansion, 50 mg vistusertib bd 3/7 days + paclitaxel 80 mg/m^2, 25 patients"}, "[10]": {"conditions": "sqNSCLC expansion, 25 mg cohort"}, "[11]": {"conditions": "sqNSCLC expansion, 25 mg vistusertib bd 3/7 days + paclitaxel 80 mg/m^2"}, "[12]": {"conditions": "Lung Expansion 25 mg + paclitaxel (N=24), all grades"}, "[13]": {"conditions": "Lung Expansion 50 mg + paclitaxel (N=17), all grades"}},
  "note": "Where two headings read alike, the source gives them in different places.",
  "data": [
    {"smiles": "CC(=O)O[C@H]1C(=O)[C@@]2(C)[C@H]([C@H](OC(=O)c3ccccc3)[C@]3(O)C[C@H](OC(=O)[C@H](O)[C@@H](NC(=O)c4ccccc4)c4ccccc4)C(C)=C1C3(C)C)[C@]1(OC(C)=O)CO[C@@H]1C[C@@H]2O", "note": "[paclitaxel]", "values": [
      {"measurement": "Drug-drug PK interaction on drug exposure, combination versus either agent alone", "setting": "[1]", "value": "no drug-drug PK interaction"},
      {"measurement": "Increase in Ser^473 p-AKT levels in PRP", "setting": "[2]; 4 h following 80 mg/m^2 paclitaxel alone (C1D1), P = 0.14, statistically non-significant", "value": 1.4, "unit": "fold"}
    ]},
    {"smiles": "CNC(=O)c1cccc(-c2ccc3c(N4CCOC[C@@H]4C)nc(N4CCOC[C@@H]4C)nc3n2)c1", "note": "[vistusertib]", "values": [
      {"measurement": "Patients with reduction in size of their tumour", "setting": "[3]; HGSOC expansion at RP2D", "value": 76, "unit": "%"},
      {"measurement": "Patients with reduction in size of their tumour, number", "setting": "[3]; HGSOC expansion at RP2D", "value": "19 of 25"},
      {"measurement": "GCIG CA125 responses, patients", "setting": "[3]; [8]", "value": "16/25"},
      {"measurement": "Median progression-free survival (mPFS)", "setting": "[3]; [8]", "value": 5.8, "unit": "months"},
      {"measurement": "RECIST responses (partial response), patients", "setting": "[3]; [8]", "value": "13/25"},
      {"measurement": "GCIG CA125 response rate", "setting": "[3]; [9]", "value": 64, "unit": "%"},
      {"measurement": "RECIST response rate", "setting": "[3]; [9]", "value": 52, "unit": "%"},
      {"measurement": "RECIST response, N with PR", "setting": "[3]; OVARIAN Expansion (50 mg AZD2014/80 mg Paclitaxel), 27 patients", "value": 13, "unit": "PR"},
      {"measurement": "RECIST response, N with PR", "setting": "[4]; LUNG Expansion (25 mg AZD2014/80 mg Paclitaxel), 24 patients", "value": 8},
      {"measurement": "Patients with reduction in the size of their tumour", "setting": "[4]; [10]", "value": 78, "unit": "%"},
      {"measurement": "Patients with reduction in the size of their tumour, number", "setting": "[4]; [10]", "value": "Eighteen of the 23"},
      {"measurement": "Median progression-free survival (mPFS)", "setting": "[4]; [11]", "value": 5.8, "unit": "months"},
      {"measurement": "RECIST responses (partial response), patients", "setting": "[4]; [11]", "value": "8/23"},
      {"measurement": "RECIST response rate", "setting": "[4]; sqNSCLC expansion, 25 mg vistusertib bd 3/7 days + paclitaxel 80 mg/m^2, 23 patients", "value": 35, "unit": "%"},
      {"measurement": "Abdominal cramps/pain, % of patients", "setting": "patients with sqNSCLC; [12]", "value": 8, "unit": "%"},
      {"measurement": "Alopecia, % of patients", "setting": "patients with sqNSCLC; [12]", "value": 54, "unit": "%"},
      {"measurement": "Haemoptysis, % of patients", "setting": "patients with sqNSCLC; [12]", "value": 4, "unit": "%"},
      {"measurement": "Aches and pain, % of patients", "setting": "patients with sqNSCLC; [13]", "value": 12, "unit": "%"},
      {"measurement": "Alopecia, % of patients", "setting": "patients with sqNSCLC; [13]", "value": 12, "unit": "%"},
      {"measurement": "Tolerated dose of vistusertib in sqNSCLC", "setting": "patients with sqNSCLC; human, in vivo", "value": 25, "unit": "mg"},
      {"measurement": "Recommended phase II dose (RP2D) of vistusertib", "setting": "[5]; bd 3/7 days for 6/7 weeks, with 80 mg/m^2 weekly paclitaxel", "value": 50, "unit": "mg"},
      {"measurement": "Dose-limiting toxicities", "setting": "[5]; in vivo", "value": "rash"},
      {"measurement": "Dose-limiting toxicities", "setting": "[5]; schedule A (bd 3/7 days) with weekly paclitaxel 80 mg/m^2", "value": "fatigue and mucositis"},
      {"measurement": "Maximally tolerated dose (MTD) of vistusertib", "setting": "[5]; schedule A, bd 3/7 days for 6/7 weeks, with 80 mg/m^2 weekly paclitaxel", "value": 50, "unit": "mg"},
      {"measurement": "Maximally tolerated dose (MTD) of vistusertib", "setting": "[5]; schedule B, bd 2/7 days for 6/7 weeks, with 80 mg/m^2 weekly paclitaxel", "value": 75, "unit": "mg"},
      {"measurement": "Effect of the combination of vistusertib and paclitaxel on growth", "setting": "ovarian cancer models", "value": "additive effect"},
      {"measurement": "AUC(0-t)", "setting": "clinical; 25 mg", "value": 2090, "unit": "ng·h/mL"},
      {"measurement": "Cmax", "setting": "clinical; 25 mg", "value": 579, "unit": "ng/mL"},
      {"measurement": "half-life", "setting": "clinical; 25 mg", "value": 3.3, "unit": "h"},
      {"measurement": "AUC(0-t)", "setting": "clinical; 50 mg", "value": 2600, "unit": "ng·h/mL"},
      {"measurement": "Cmax", "setting": "clinical; 50 mg", "value": 840, "unit": "ng/mL"},
      {"measurement": "half-life", "setting": "clinical; 50 mg", "value": 1.8, "unit": "h"},
      {"measurement": "AUC(0-t)", "setting": "clinical; 75 mg", "value": 7540, "unit": "ng·h/mL"},
      {"measurement": "Cmax", "setting": "clinical; 75 mg", "value": 1840, "unit": "ng/mL"},
      {"measurement": "half-life", "setting": "clinical; 75 mg", "value": 2.7, "unit": "h"},
      {"measurement": "AUC(0-t)", "setting": "clinical; 100 mg", "value": 7560, "unit": "ng·h/mL"},
      {"measurement": "Cmax", "setting": "clinical; 100 mg", "value": 1960, "unit": "ng/mL"},
      {"measurement": "half-life", "setting": "clinical; 100 mg", "value": 3, "unit": "h"},
      {"measurement": "AUC versus dose of vistusertib", "setting": "[6]", "value": "approximately dose proportional"},
      {"measurement": "Drug-drug PK interaction on drug exposure, combination versus either agent alone", "setting": "[6]", "value": "no drug-drug PK interaction"},
      {"measurement": "Hyperglycaemia, all grades, % of patients", "setting": "patients", "value": 11, "unit": "%"},
      {"measurement": "Hyperglycaemia, grade 3/4, % of patients", "setting": "patients", "value": 1, "unit": "%"},
      {"measurement": "Partial responses in patients with sqNSCLC", "setting": "sqNSCLC", "value": "two partial responses"},
      {"measurement": "half-life", "setting": "[7]", "value": "short half-life"},
      {"measurement": "Ser^473 p-AKT lower than corresponding time-point following paclitaxel alone", "setting": "[2]; 4 h, vistusertib 50 mg bd 3/7 + paclitaxel", "value": 62, "unit": "%"},
      {"measurement": "Ser^473 p-AKT in PRP, % of pre-dose levels", "setting": "[2]; 4 h post-vistusertib, 50 mg bd 3/7 in addition to paclitaxel (C1D8), P = 0.0495", "value": 53, "unit": "%"},
      {"measurement": "Change of p-AKT in PRP after single dose of vistusertib alone", "setting": "[2]; C1D4, 50 mg", "value": "non-significant reduction"}
    ]}
  ]
}
